Source: patent publication US20240408064A1, “RAS INHIBITORS, COMPOSITIONS AND METHODS OF USE THEREOF” (GENETOLEAD INC., priority 2021, published 2024)

How the values were obtained:
HRas^G12V [1] = biological target: T1, HRas^G12V (Homo sapiens (Human), UniProt P01112, G12V); assay: 19F DLB (ligand-observed 19F NMR) score; format: binding; set-up: scale not given here
Procedure: (§1) All NMR experiments were collected using 3 mm NMR tubes on a 600 MHz Bruker Avance III spectrometer equipped with a QCI helium cryoprobe and a SampleJet sample changer. The buffer used for NMR experiments was 25 mM sodium phosphate pH 7.4, 150 mM NaCl, 5 mM MgCl2, 1 mM TCEP-d16, 10% D2O. Data were processed using Bruker TopSpin.
(§2) Since the fragment library was curated using phosphate buffer, 25 mM sodium phosphate pH 7.4, 150 mM NaCl, 5 mM MgCl2, 1 mM TCEP-d16, 10% D2O Fresh TCEP was used for experiments. Screening was performed using ^1H-decoupled 1D ^19F experiment Bruker experiment (zgfhigqn.2) with 64 scans and a relaxation delay of 5 seconds. 50 μM HRas^G12V and 240 μM of each fragment in pools (mixtures) were used.
Hit confirmation was performed using the same ^19F experiment as the screen. Ligand-observed 1D ^1H, protein-observed 1D ^1H, ^1H T2-CPMG as well as Saturation Transfer Difference (STD) experiments were also run on the same samples. Ligand-observed 1D ^1H was run using the standard Bruker sequence with excitation sculpting (zgesgp) with a relaxation delay of 10 seconds and 16 scans per spectrum. Protein-observed 1D ^1H was performed using the same sequence with a relaxation delay of 1 second and 256 scans in order to increase the signal-to-noise of the protein resonances, while keeping the experimental time relatively short. The ^1H T2-CPMG experiment employed a modified version of the Bruker 1D ^1H zgesgp experiment with the addition of a CPMG pulse train after the first 90° excitation pulse. Total duration for each spin echo was fixed at 1 ms (τ=500 μs), while the number of echoes in the pulse train was varied according to the total time (T). The number of scans for each spectrum was 4 and eight delay times were run on each sample, ranging from 1 ms to 800 ms. […]

HRas^G12V [2] = biological target: T1, HRas^G12V; assay: 19F T2-CPMG NMR score; format: binding
Procedure: as §1, §2
Hit confirmation was performed using the same ^19F experiment as the screen. Ligand-observed 1D ^1H, protein-observed 1D ^1H, ^1H T2-CPMG as well as Saturation Transfer Difference (STD) experiments were also run on the same samples. Ligand-observed 1D ^1H was run using the standard Bruker sequence with excitation sculpting (zgesgp) with a relaxation delay of 10 seconds and 16 scans per spectrum. Protein-observed 1D ^1H was performed using the same sequence with a relaxation delay of 1 second and 256 scans in order to increase the signal-to-noise of the protein resonances, while keeping the experimental time relatively short. The ^1H T2-CPMG experiment employed a modified version of the Bruker 1D ^1H zgesgp experiment with the addition of a CPMG pulse train after the first 90° excitation pulse. Total duration for each spin echo was fixed at 1 ms (τ=500 μs), while the number of echoes in the pulse train was varied according to the total time (T). The number of scans for each spectrum was 4 and eight delay times were run on each sample, ranging from 1 ms to 800 ms.
Because of its power to probe the intrinsically weak interactions (Kd) between targets and low-molecular weight fragments, NMR fragment-based lead discovery (FBLD) is a very useful biophysical method in early stage drug discovery, especially for challenging target proteins; including those with shallow binding pockets. Since FBLD screens are performed using low-molecular weight compounds (fragments) with lower structural complexity, the same chemical space can be covered using a smaller number of drug-like fragments versus use of large libraries of higher-molecular weight lead-like compounds as in high throughput screening (HTS) campaigns. Therefore, FBLD has a much higher hit rate than HTS using only several hundred to several thousand compounds in comparison with approximately 1 million compounds for HTS. Also, the small size of the compounds screened in FBLD means a better chance to fully match the interactions with small or transient pockets within the target protein, where these less tractable pockets cannot be accessed with standard classical HTS methods. […] We expect this methodology to be more advantageous than classical HTS methods for expediting the time from hit to lead (H2L) and allows for rapid access to high quality leads with lower attrition rates in subsequent lead optimization (LO) campaigns toward pre-clinical candidate selection. FBLD screening by NMR involves a “consensus binding” approach where several distinct NMR experiments (DLB, STD, CPMG) are applied along with a free-state aggregation detection method (T2-CPMG) to rank the compounds for their affinity to the receptor (HRAS in this case) whilst simultaneously monitoring the solution behavior and critical quality attributes of each compound. The latter helps to eliminate artifact binders which are highly problematic. We performed a fluorine screen involving 461 compounds that were derived from a highly curated fragment library. Moreover, two-dimensional ^15N HSQC NMR was also used to validate ligand-binding sites on the target protein. […]

T1 sequence (P01112 1-166 G12V): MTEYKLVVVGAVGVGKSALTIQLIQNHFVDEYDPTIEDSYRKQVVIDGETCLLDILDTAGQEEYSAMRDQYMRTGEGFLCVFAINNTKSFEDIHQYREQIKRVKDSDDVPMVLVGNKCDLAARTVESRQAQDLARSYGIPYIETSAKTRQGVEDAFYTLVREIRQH

Row | Compound | 19F DLB Score (HRas^G12V [1]) | 19F T2-CPMG Score (HRas^G12V [2])
1 | COC(C)C1CN(C(=O)Cc2c[nH]c3cc(F)ccc23)C1 (stereo not shown) [Compound 10124, 2-(6-fluoro-1H-indol-3-yl)-1-(3-(1-methoxyethyl)azetidin-1-yl)ethan-1-one] | 1.82 | 12.49
2 | CC(=O)N[C@@H]1CCN(C(=O)Cc2c[nH]c3cc(F)ccc23)C1 [Compound 10091] | 1.93 | 7.83
3 | COC(=O)C1CN(C(=O)Cc2c[nH]c3cc(F)ccc23)C1 [Compound 10087, methyl 1-(2-(6-fluoro-1H-indol-3-yl)acetyl) azetidine-3-carboxylate] | 2.16 | 13.65
4 | CC(=O)Nc1cccc(C(=O)N2CCC(c3c[nH]c4cc(F)ccc34)CC2)c1 [Compound 11020] | 2.23 | 15.24
5 | COC1CN(C(=O)Cc2c[nH]c3cc(F)ccc23)C1 [Compound 10081] | 2.15 | 15.91
6 | O=C(Cc1c[nH]c2cc(F)ccc12)Nc1cccnc1 [Compound 10058] | 3.07 | 21.6
7 | O=C1CN(C(=O)Cc2c[nH]c3cc(F)ccc23)CCN1 [Compound 10145] | 1.64 | 16.13
8 | CC(c1ccncc1)N(C)C(=O)Cc1c[nH]c2cc(F)ccc12 (stereo not shown) [Compound 10100, 2-(6-fluoro-1H-indol-3-yl)-N-methyl-N-(1-(pyridin-4-yl)ethyl)acetamide] | 1.73 | 9.66
9 | CC(C)COC1CCN(C(=O)Cc2c[nH]c3cc(F)ccc23)CC1 [Compound 10111, 2-(6-fluoro-1H-indol-3-yl)-1-(4-isobutoxypiperidin-1-yl) ethan-1-one] | 2.23 | 12.96
10 | Fc1ccc2c(CNc3ccccc3)c[nH]c2c1 [Compound 10052, N-((6-fluoro-1H-indol-3-yl)methyl) aniline] | 4.75 | 25.51
11 | O=C(c1ccccc1)N1CCC(c2c[nH]c3cc(F)ccc23)C1 (stereo not shown) [Compound 11021] | 3.35 | 39.09
12 | O=C(Cc1c[nH]c2cc(F)ccc12)N1C[C@H]2CC[C@@H](C1)O2 [Compound 10122] | 1.68 | 9.62
13 | CN1CCN(CCNC(=O)Cc2c[nH]c3cc(F)ccc23)CC1 [Compound 10020] | 1.62 | 14.34

The next lines start with the values.

Row | 19F DLB Score (HRas^G12V [1]) | 19F T2-CPMG Score (HRas^G12V [2]) | Compound
14 | 1.7 | 39.41 | CC1CN(C(=O)C(CC(=O)O)c2c[nH]c3cc(F)ccc23)C1 (stereo not shown) [Compound 11034]
15 | 3.59 | 39.34 | O=C1C[C@H](c2c[nH]c3cc(F)ccc23)C(=O)N1 (single isomer, unassigned) [Compound 11039]
16 | 2.87 | 25.25 | CN(C)CCOC1CN(C(=O)Cc2c[nH]c3cc(F)ccc23)C1 [compound 10110]
17 | 2.77 | 16.24 | O=C(O)CC(c1ccccc1F)c1c[nH]c2cc(F)ccc12 (stereo not shown) [Compound 11044]
18 | 2.12 | 16.77 | O=C(C1CCCNC1)N1CCC(c2c[nH]c3cc(F)ccc23)C1 (stereo not shown) [Compound 11037]
19 | 2.48 | 13.23 | O=C(C1CCC(O)CC1)N1CCC(c2c[nH]c3cc(F)ccc23)CC1 (stereo not shown) [Compound 11027]
20 | 1.76 | 19.33 | O=C(C1CCNC1)N1CCC(c2c[nH]c3cc(F)ccc23)C1 (stereo not shown) [Compound 11036]
